Data as given in PubChem BioAssay (NCI).
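Values below derive from 48-hour exposures of cells grown in 96-well plates, with endpoints linearly interpolated between the two concentrations bracketing the appropriate inhibition level. GI50 = concentration required for 50% inhibition of growth. The concentration for full growth arrest is given as TGI.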

Columns and labels:
Experiment in all cases: NCI-60 cell line screen, 48 h; in the data active = GI50 below about 0.43 µM; inactive = the rest
[1] = system: SN12C renal
[2] = system: PC-3 prostate
[3] = system: HT29 colon
[4] = system: CAKI-1 renal
[5] = system: MALME-3M melanoma
[6] = system: MDA-MB-435
[7] = system: UACC-62 melanoma
[8] = system: COLO 205 colon
[9] = system: NCI-H460 lung
[10] = system: MCF7 breast
[11] = system: RPMI-8226 leukemia
[12] = system: NCI/ADR-RES ovarian
[13] = system: A498 renal
[14] = system: MDA-MB-468 breast
[15] = system: SF-539 CNS
[16] = system: HL-60(TB) leukemia
[17] = system: UO-31 renal
[18] = system: K-562 leukemia
[19] = system: HCC-2998 colon
[20] = system: TK-10 renal
[21] = system: U251 CNS
[22] = system: NCI-H226 lung
[23] = system: EKVX NSCLC
[24] = system: HOP-62 NSCLC
[25] = system: SNB-75 CNS
[26] = system: SK-MEL-5 melanoma
[27] = system: OVCAR-3 ovarian
[28] = system: SF-268 CNS
[29] = system: DU-145 prostate
[30] = system: HOP-92 NSCLC
[31] = system: SNB-19 CNS
[32] = system: HCT-116 colon
[33] = system: HCT-15 colon
[34] = system: SF-295 CNS
[35] = system: IGROV1 ovarian
[36] = system: MDA-MB-231 breast
[37] = system: M14 melanoma
[38] = system: OVCAR-8 ovarian
[39] = system: NCI-H23 lung
[40] = system: SK-OV-3 ovarian
[41] = system: MOLT-4 leukemia
[42] = system: BT-549 breast
[43] = system: OVCAR-5 ovarian
[44] = system: T-47D breast
[45] = system: SK-MEL-2 melanoma
[46] = system: CCRF-CEM leukemia
[47] = system: HS 578T breast
[48] = system: SR leukemia
[49] = system: ACHN renal
[50] = system: OVCAR-4 ovarian
[51] = system: SW-620 colon
[52] = system: A549 NSCLC
[53] = system: LOX IMVI melanoma
[54] = system: UACC-257 melanoma
[55] = system: KM12 colon
[56] = system: 786-0 renal
[57] = system: SK-MEL-28 melanoma
[58] = system: NCI-H522 lung

C[C@H]1[C@H](OC(=O)CCC(=O)N(CCCc2cn(-c3ccc(CN4CCOCC4)cc3)nn2)CCNc2ccnc3cc(Cl)ccc23)O[C@@H]2OC3(C)CC[C@H]4[C@H](C)CC[C@@H]1[C@@]24OO3
3880 nM: TGI [3]
4190 nM: TGI [33]
5620 nM: TGI [11]
2390 nM: TGI [18]
3620 nM: TGI [57]
8420 nM: TGI [42]
> 11800 nM: TGI [1] | TGI [2] | TGI [4] | TGI [7] | TGI [8] | TGI [10] | TGI [12] | TGI [13] | TGI [17] | TGI [19] | TGI [20] | TGI [22] | TGI [23] | TGI [24] | TGI [25] | TGI [27] | TGI [28] | TGI [29] | TGI [31] | TGI [34] | TGI [35] | TGI [36] | TGI [38] | TGI [39] | TGI [40] | TGI [43] | TGI [44] | TGI [45] | TGI [46] | TGI [49] | TGI [50] | TGI [51] | TGI [52] | TGI [55] | TGI [58]
2680 nM: TGI [32]
8270 nM: TGI [21]
3040 nM: TGI [5]
inactive: GI50 [1] 2980 nM | GI50 [3] 745 nM | GI50 [4] 4560 nM | GI50 [5] 1510 nM | GI50 [6] 800 nM | GI50 [7] 1150 nM | GI50 [8] 623 nM | GI50 [9] 2200 nM | GI50 [10] 821 nM | GI50 [12] 2640 nM | GI50 [13] > 11800 nM | GI50 [14] 943 nM | GI50 [15] 1590 nM | GI50 [17] 1980 nM | GI50 [19] 3130 nM | GI50 [20] 11700 nM | GI50 [21] 1420 nM | GI50 [22] 2540 nM | GI50 [23] 1080 nM | GI50 [24] 10800 nM | GI50 [25] 11600 nM | GI50 [26] 1190 nM | GI50 [27] 681 nM | GI50 [28] 2720 nM | GI50 [29] 6840 nM | GI50 [30] 506 nM | GI50 [31] 7350 nM | GI50 [34] 2470 nM | GI50 [35] 3730 nM | GI50 [36] 3050 nM | GI50 [37] 1590 nM | GI50 [38] 801 nM | GI50 [39] 2280 nM | GI50 [40] > 11800 nM | GI50 [42] 899 nM | GI50 [43] 1310 nM | GI50 [44] 460 nM | GI50 [45] 3160 nM | GI50 [46] 1020 nM | GI50 [47] 1230 nM | GI50 [49] 2740 nM | GI50 [50] 869 nM | GI50 [51] 533 nM | GI50 [52] 3250 nM | GI50 [53] 692 nM | GI50 [54] 1190 nM | GI50 [55] 596 nM | GI50 [56] 1530 nM | GI50 [57] 1430 nM | GI50 [58] 505 nM
2470 nM: TGI [48]
3540 nM: TGI [53] | TGI [56]
8910 nM: TGI [6]
9500 nM: TGI [9]
3450 nM: TGI [37]
8090 nM: TGI [47]
3270 nM: TGI [41]
1440 nM: TGI [16]
4920 nM: TGI [14]
active: GI50 [2] 234 nM | GI50 [11] 406 nM | GI50 [16] 359 nM | GI50 [18] 330 nM | GI50 [32] 372 nM | GI50 [33] 389 nM | GI50 [41] 317 nM | GI50 [48] 408 nM
2820 nM: TGI [54]
4650 nM: TGI [30]
3230 nM: TGI [15]
2580 nM: TGI [26]
